Target: T1, Itk (Homo sapiens, UniProt Q08881)
T1 sequence (Q08881 1-620): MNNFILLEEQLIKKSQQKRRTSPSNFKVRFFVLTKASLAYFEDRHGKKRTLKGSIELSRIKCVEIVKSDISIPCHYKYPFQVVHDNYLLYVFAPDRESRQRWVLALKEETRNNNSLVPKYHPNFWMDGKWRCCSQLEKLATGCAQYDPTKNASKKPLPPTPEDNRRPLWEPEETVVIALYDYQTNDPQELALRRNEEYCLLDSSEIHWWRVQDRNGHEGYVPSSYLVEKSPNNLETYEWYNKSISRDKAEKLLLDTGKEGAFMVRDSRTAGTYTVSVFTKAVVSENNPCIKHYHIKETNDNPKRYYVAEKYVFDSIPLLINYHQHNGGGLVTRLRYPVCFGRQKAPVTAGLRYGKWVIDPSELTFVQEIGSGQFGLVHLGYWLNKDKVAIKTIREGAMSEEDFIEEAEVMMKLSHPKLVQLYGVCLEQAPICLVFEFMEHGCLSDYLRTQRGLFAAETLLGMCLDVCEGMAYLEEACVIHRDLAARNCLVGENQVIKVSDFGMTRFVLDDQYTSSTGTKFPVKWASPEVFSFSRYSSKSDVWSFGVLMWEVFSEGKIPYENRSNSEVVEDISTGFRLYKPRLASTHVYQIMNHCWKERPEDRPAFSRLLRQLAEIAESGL
Assay: ITK inhibition assay, radioactive-phosphate incorporation
Assay type: biochemical
Conditions: [γ-33P]ATP, SAM68 peptide, 25° C.
Procedure: Assays were carried out in a mixture of 20 mM MOPS (pH 7.0), 10 mM MgCl2, 0.1% BSA and 1 mM DTT. […] Assays were carried out at 25° C. in the presence of 50 nM Itk. An assay stock buffer solution was prepared containing all of the reagents listed above, with the exception of ATP and the test compound of interest.
The reaction was stopped after 10 minutes by the addition of […] 0.2M phosphoric acid+0.01% TWEEN 20. A multiscreen phosphocellulose filter 96-well plate (Millipore, Cat no. MAPHN0B50) was pretreated with 100 μL 0.2M phosphoric acid+0.01% TWEEN 20 prior to the addition of […] of the stopped assay mixture. The plate was washed with 4×200 μL 0.2M phosphoric acid+0.01% TWEEN 20.
Ki(app) data were calculated from non-linear regression analysis of the initial rate data using the Prism software package (GraphPad Prism version 3.0cx for Macintosh, GraphPad Software, San Diego Calif., USA).

| Ki [nM] | Compound |
| --- | --- |
| 100 to 1000 | O=C(Nc1cc(-c2ccncc2)c[nH]c1=O)c1ccc(Br)cc1 [Compound I-20, 4-Bromo-N-(1,2-dihydro-2-oxo-5-(pyridin-4-yl)pyridin-3-yl)benzamide] |
| 100 to 1000 | CC(C)Oc1ccc(C(=O)Nc2cc(-c3ccncc3)c[nH]c2=O)cc1 [Compound I-21] |
| 100 to 1000 | O=C(Nc1cc(-c2ccncc2)c[nH]c1=O)c1ccc(Oc2ccccc2)cc1 [Compound I-22] |
| 100 to 1000 | O=C(Nc1cc(-c2ccncc2)c[nH]c1=O)c1ccc(Cl)cc1 [Compound I-27] |
| 100 to 1000 | CN(C)c1ccc(C(=O)Nc2cc(-c3ccncc3)c[nH]c2=O)cc1 [Compound I-45] |
| 100 to 1000 | O=C(Nc1cc(-c2ccncc2)c[nH]c1=O)c1ccc(OCc2ccccc2)cc1 [Compound I-46] |
| 100 to 1000 | O=C(Nc1cc(-c2ccncc2)c[nH]c1=O)c1ccc(O)cc1 [Compound I-47] |
| 100 to 1000 | O=C(Nc1cc(-c2ccncc2)c[nH]c1=O)c1ccc(N2CCC(O)CC2)cc1 [Compound I-72] |
| 100 to 1000 | O=C(Nc1cc(-c2ccncc2)c[nH]c1=O)c1ccc(N2CCOCC2)cc1 [Compound I-73] |
| 100 to 1000 | O=C(Nc1cc(-c2ccncc2)c[nH]c1=O)c1ccc(N2CCC(N3CCCC3)CC2)cc1 [Compound I-75] |
| < 100 | COCCCN1CCN(c2ccc(C(=O)Nc3cc(-c4ccncc4)c[nH]c3=O)cc2)CC1 [Compound I-77] |
| < 100 | O=C(Nc1cc(-c2ccncc2)c[nH]c1=O)c1ccc(N2CCN(CCOCCO)CC2)cc1 [Compound I-81] |
| 100 to 1000 | CNCCCN(C)Cc1ccc(C(=O)Nc2cc(-c3ccncc3)c[nH]c2=O)cc1 [Compound I-85] |
| < 100 | CNCCNc1nccc(-c2c[nH]c(=O)c(NC(=O)c3ccc(C(C)(C)C)cc3)c2)n1 [II-20] |
| 100 to 1000 | CN(C)c1nccc(-c2c[nH]c(=O)c(NC(=O)c3ccc(C(C)(C)C)cc3)c2)n1 [II-21] |
| < 100 | CCNc1nccc(-c2c[nH]c(=O)c(NC(=O)c3ccc(C(C)(C)C)cc3)c2)n1 [II-22] |
| < 100 | CC(C)Nc1nccc(-c2c[nH]c(=O)c(NC(=O)c3ccc(C(C)(C)C)cc3)c2)n1 [II-23] |
| 100 to 1000 | CC(C)(C)c1ccc(C(=O)Nc2cc(-c3cccc(NC4CCNCC4)n3)c[nH]c2=O)cc1 [II-32] |
| 100 to 1000 | CC(C)(C)c1ccc(C(=O)Nc2cc(-c3ccncn3)c[nH]c2=O)cc1 [II-34] |
| 100 to 1000 | CC(C)(C)c1ccc(C(=O)Nc2cc(-c3cc(N[C@@H]4CCNC4)ncn3)c[nH]c2=O)cc1 [II-39] |
| 100 to 1000 | O=C(Nc1cc(-c2cc(N[C@@H]3CCNC3)ncn2)c[nH]c1=O)c1ccc(N2CCCCC2)cc1 [II-45] |
| 100 to 1000 | CSc1nccc(-c2c[nH]c(=O)c(NC(=O)c3ccc(N4CCCCC4)cc3)c2)n1 [II-52] |
| 100 to 1000 | CNc1ccnc(-c2c[nH]c(=O)c(NC(=O)c3ccc(N4CCCCC4)cc3)c2)n1 [II-56] |

| Ki [nM] | Compound |
| --- | --- |
| 100 to 1000 | CCOc1nccc(-c2c[nH]c(=O)c(NC(=O)c3ccc(N4CCCCC4)cc3)c2)n1 [II-57] |
| 100 to 1000 | O=C(Nc1cc(-c2ccnc(NCCO)n2)c[nH]c1=O)c1ccc(N2CCCCC2)cc1 [II-59] |
| 100 to 1000 | CNCCNc1cccc(-c2c[nH]c(=O)c(NC(=O)c3ccc(N4CCCCC4)cc3)c2)n1 [II-60] |
| 100 to 1000 | CNc1ncc(C)c(-c2c[nH]c(=O)c(NC(=O)c3ccc(C(C)(C)C)cc3)c2)n1 [II-62] |
| < 100 | CNc1nccc(-c2c[nH]c(=O)c(NC(=O)c3ccccc3)c2)n1 [II-64] |
| < 100 | CCc1cc(-c2c[nH]c(=O)c(NC(=O)c3ccc(N4CCCCC4)cc3)c2)nc(NC)n1 [II-66] |
| 100 to 1000 | CNc1cccc(-c2c[nH]c(=O)c(NC(=O)c3ccc(N4CCCCC4)cc3)c2)c1 [II-69] |
| 100 to 1000 | O=C(Nc1cc(-c2cccc(NCCO)n2)c[nH]c1=O)c1ccc(N2CCCCC2)cc1 [II-70] |
| 100 to 1000 | COCCNc1cccc(-c2c[nH]c(=O)c(NC(=O)c3ccc(N4CCCCC4)cc3)c2)n1 [II-71] |
| 100 to 1000 | CNCCOc1nccc(-c2c[nH]c(=O)c(NC(=O)c3ccc(N4CCCCC4)cc3)c2)n1 [II-76] |
| 100 to 1000 | CNCCN(C)c1cccc(-c2c[nH]c(=O)c(NC(=O)c3ccc(N4CCCCC4)cc3)c2)n1 [II-95] |
| < 100 | CNc1nccc(-c2c[nH]c(=O)c(NC(=O)c3ccc(OCc4ccccc4)cc3)c2)n1 [II-97] |
| 100 to 1000 | CNc1nccc(-c2c[nH]c(=O)c(NC(=O)c3ccc(Cc4ccccc4)cc3)c2)n1 [II-98] |
| 100 to 1000 | N#Cc1cncc(-c2c[nH]c(=O)c(NC(=O)c3ccc(N4CCCCC4)cc3)c2)c1 [II-99] |
| 100 to 1000 | O=C(Nc1cc(-c2ccncc2)c[nH]c1=O)c1ccc(N2CCNCC2)nc1 [II-100] |
| 100 to 1000 | CC(=O)NCCNc1cccc(-c2c[nH]c(=O)c(NC(=O)c3ccc(N4CCCCC4)cc3)c2)n1 [II-101] |
| 100 to 1000 | O=C(Nc1cc(-c2cccc(NCCN3CCCC3)n2)c[nH]c1=O)c1ccc(N2CCCCC2)cc1 [II-104] |
| 100 to 1000 | O=C(Nc1cc(-c2cccc(NCC3CCNCC3)n2)c[nH]c1=O)c1ccc(N2CCCCC2)cc1 [II-105] |
| < 100 | CNc1nccc(-c2c[nH]c(=O)c(NC(=O)c3ccc(NCCCN)cc3)c2)n1 [II-107] |
| 100 to 1000 | CC(C)[C@@H](CO)Nc1cccc(-c2c[nH]c(=O)c(NC(=O)c3ccc(N4CCCCC4)cc3)c2)n1 [II-108] |
| 100 to 1000 | CCN1CCCC1CNc1cccc(-c2c[nH]c(=O)c(NC(=O)c3ccc(N4CCCCC4)cc3)c2)n1 (stereo not drawn) [II-120] |
| 100 to 1000 | O=C(Nc1cc(-c2cccc(CO)n2)c[nH]c1=O)c1ccc(N2CCCCC2)cc1 [II-121] |
| 100 to 1000 | CNc1cc(-c2c[nH]c(=O)c(NC(=O)c3ccc(N4CCCCC4)cc3)c2)nc(NC)n1 [II-123] |

| Ki [nM] | Compound |
| --- | --- |
| 100 to 1000 | CNC(=O)c1cccc(-c2c[nH]c(=O)c(NC(=O)c3ccc(N4CCCCC4)cc3)c2)n1 [II-124] |
| < 100 | CNc1cc(-c2c[nH]c(=O)c(NC(=O)c3ccc(N4CCNCC4)cc3)c2)ncn1 [II-126] |
| < 100 | C[C@H](CN)Nc1cccc(-c2c[nH]c(=O)c(NC(=O)c3ccc(N4CCCCC4)cc3)c2)n1 [II-129] |
| < 100 | CNc1nc(C)cc(-c2c[nH]c(=O)c(NC(=O)c3ccc(N4CCCCC4)cc3)c2)n1 [II-130] |
| < 100 | CC(C)[C@@H](CO)Nc1cncc(-c2c[nH]c(=O)c(NC(=O)c3ccc(N4CCNCC4)cc3)c2)n1 [II-131] |
| 100 to 1000 | CC(C)[C@H](CO)Nc1cccc(-c2c[nH]c(=O)c(NC(=O)c3ccc(N4CCCCC4)cc3)c2)n1 [II-132] |
| 100 to 1000 | CC(C)(C)C(CO)Nc1cccc(-c2c[nH]c(=O)c(NC(=O)c3ccc(N4CCCCC4)cc3)c2)n1 (stereo not drawn) [II-133] |
| < 100 | CNc1cccc(-c2c[nH]c(=O)c(NC(=O)c3ccc(OCCC4CCNCC4)cc3)c2)n1 [II-134] |
| < 100 | CNc1cc(-c2c[nH]c(=O)c(NC(=O)c3ccc(N4C[C@@H](C)N[C@@H](C)C4)cc3)c2)ncn1 [II-135] |
| < 100 | CNc1cc(-c2c[nH]c(=O)c(NC(=O)c3ccc(N4CCC[C@H]4CN4CCCC4)cc3)c2)ncn1 [II-136] |
| 100 to 1000 | CNc1cc(-c2c[nH]c(=O)c(NC(=O)c3ccc(C4=CCNCC4)cc3)c2)ncn1 [II-137] |
| < 100 | CNc1cccc(-c2c[nH]c(=O)c(NC(=O)c3ccc(OCCN4CCNCC4)cc3)c2)n1 [II-138] |
| < 100 | CNc1cncc(-c2c[nH]c(=O)c(NC(=O)c3ccc(N4CCNCC4)cc3)c2)n1 [II-139] |
| 100 to 1000 | O=C(Nc1cc(-c2ccccn2)c[nH]c1=O)c1ccc(N2CCCCC2)cc1 [II-140] |
| < 100 | CNc1cc(-c2c[nH]c(=O)c(NC(=O)c3ccc(OCCC4CCNCC4)cc3)c2)ncn1 [II-142] |
| 100 to 1000 | Cn1cncc1-c1c[nH]c(=O)c(NC(=O)c2ccc(N3CCNCC3)cc2)c1 [II-144] |
| < 100 | CNc1cncc(-c2c[nH]c(=O)c(NC(=O)c3ccc(N4CCC[C@H]4CN4CCCC4)cc3)c2)n1 [II-145] |
| < 100 | CNc1cncc(-c2c[nH]c(=O)c(NC(=O)c3ccc(N4CCCNCC4)cc3)c2)n1 [II-146] |
| < 100 | CNc1cncc(-c2c[nH]c(=O)c(NC(=O)c3ccc(N4CCC[C@H]4CO)cc3)c2)n1 [II-147] |
| 100 to 1000 | O=C(Nc1cc(-c2cccc(NC3(CO)CCCC3)n2)c[nH]c1=O)c1ccc(N2CCCCC2)cc1 [II-150] |
| 100 to 1000 | CC[C@@H](CO)Nc1cccc(-c2c[nH]c(=O)c(NC(=O)c3ccc(N4CCCCC4)cc3)c2)n1 [II-151] |
| 100 to 1000 | CCC(C)[C@@H](CO)Nc1cccc(-c2c[nH]c(=O)c(NC(=O)c3ccc(N4CCCCC4)cc3)c2)n1 (stereo partly drawn) [II-152] |
| < 100 | CNc1cncc(-c2c[nH]c(=O)c(NC(=O)c3ccc(OCC4CCNCC4)cc3)c2)n1 [II-153] |
